Assay results as given in paper PMC10323112 (Cancer Science, 2023).

Key:
[1] = system: NCI-H358 (KRAS^G12C); test: Proliferation assay; assay type: cell-based, human; conditions: NCI-H358 (Figure S2D)
[2] = system: p-AKT in NCI-H1993 (KRAS^WT, PIK3CA^WT) cells; test: Basal p-AKT assay; assay type: cell-based, human; conditions: NCI‐H1993 (KRAS^WT, PIK3CA^WT) cell line
[3] = system: NCI-H1993 (KRAS^WT); test: Proliferation assay; assay type: cell-based, human; conditions: NCI-H1993 (Figure S2D)
[4] = system: p-AKT in NCI-H358 (KRAS^G12C, PIK3CA^WT) cells; test: Basal p-AKT assay; assay type: cell-based, human; conditions: NCI‐H358 (KRAS^G12C, PIK3CA^WT) cell line
[5] = in vitro; conditions: CD-1, mouse, plasma
[6] = in vivo; conditions: female, Balbc nude, mouse, 30 mg/kg
[7] = in vitro; assay type: in vitro ADME; conditions: CD-1, mouse, brain homogenate
[8] = 30 mg/kg
[9] = in vitro; conditions: human, Caco-2

Row | Compound | inhibitory effect on cell proliferation [1] | effect on p‐AKT level [2] | inhibitory effect on cell proliferation [3] | effect on p‐AKT level [4] | fraction unbound at 5 h, 1 μM [5] | AUC [6] | Kp uu [6] | fraction unbound at 5 h, 1 μM [7] | Unbound brain AUC ([8]; AUCbrain × fu,brain) | Unbound plasma AUC ([8]; AUCplasma × fu,plasma) | Papp A→B at 120 min, 10 μM [9]
1 | C[C@H](Nc1ccc2c(c1)OCCn1cc(N3C(=O)OC[C@H]3C(F)F)nc1-2)C(N)=O [GDC-0077] | very weak inhibitory effect | reduced | very weak inhibitory effect | reduced | – | – | – | – | – | – | –
2 | C=C(F)C(=O)N1CCN(c2nc(OC[C@@H]3CCCN3C)nc3c2CCN(c2cccc4cccc(Cl)c24)C3)C[C@@H]1CC#N [Adagrasib, adagrasib] | – | – | – | – | 0.002 | 44.3 µM·h | 0.01 | 0.001 | 0.0009 µM·h | 0.089 µM·h | 0.8 ×10⁻⁶ cm/s
